Assay results taken from US20100190856A1, “Novel Polyhydroxylated Compounds as Fatty Acid Synthase (FASN) Inhibitors” (UNIVERSIDAD COMPLUTENSE DE MADRID, priority 2007, published 2010).
“Also recorded” adds a separate entry of the source. Like-named read-outs stand apart in the source and are kept apart here.

Assays:
[1] = Weight loss in vivo (data not shown)
FASN = biological target: T1, FASN (Homo sapiens, UniProt P49327); experiment: Fatty acid synthase activity assay in SK-Br3 cells (NADPH oxidation, particle-free supernatants); assay type: cell-based; parameters: FASN activity, % of control cells / FASN activity reduced to / reduction of FASN activity: concentration or dose not given beside the values; conditions: for inhibition of FASN activity (in words): SK-Br3 cells treated 6, 12 and 24 hours; for FASN activity, % of control cells: SK-Br3 cells, 24 h exposure
T1 construct: endogenous in cells; host or cells: SK-Br3 breast cancer cells
Procedure: FASN activity of compounds a, b, e, f, h, i, k, m and q was assayed in particle-free supernatants by recording spectrophotometrically at 37° C. (Lambda Bio 20, Perkin Elmer, EUA; using UV Kinlab 2.80.02 software) the decrease of A340nm due to the oxidation of NADPH, as we previously described. After 6, 12, 24 h of exposure to the tested compound, the cells were harvested by treatment with trypsin-EDTA solution, pelleted by centrifugation, washed twice and resuspended in cold PBS. The cells were sonicated during 30 min at 4° C. (PSelecta ultrasons) and centrifuged for 15 min at 4° C. to keep supernatants particle-free. A sample was taken to measure the protein content by a BioRad assay (Bio-Rad Laboratories). One-hundred and twenty micrograms of protein were pre-incubated during 15 min at 37° C. in 0.2 M of potassium phosphate buffer, pH 7.0, for temperature equilibration. The sample was then added to the reaction mixture: 200 mM potassium phosphate buffer, pH 7.0, 1 mM EDTA (Sigma), 1 mM dithiothreitol (Sigma), 30 μM acetyl-CoA (Sigma), 0.24 mM NADPH (Sigma), in 0.3 mL reaction volume were monitored at 340 nm for 3 min to measure the background NADPH oxidation. After the addition of 50 μM of malonyl-CoA (Sigma), the reaction was assayed for additional 10 min to determine FASN-dependent oxidation of NADPH. Rates were corrected for the background rate of NADPH oxidation in the presence of acetyl-CoA. FASN activity was expressed in nmol NADPH oxidized min^−1 mg protein^−1.

PARP = experiment: Immunoblot analysis of PARP cleavage in SK-Br3 cells; assay type: cell-based, human; conditions: for 89 KDa product of PARP cleavage: SK-Br3 cells, 30 μM, 12, 24 and 48 h
Procedure: (§1) Following the treatment of SK-Br3 cells with the studied compound at the desired concentrations and time intervals, cells were harvested by treatment with trypsin-EDTA solution, washed twice with PBS and stored at −80° C. The cells were lysed in lysis buffer (1 mM EDTA, 150 mM NaCl, 100 μg/mL PMSF and 50 mM Tris-HCl, pH 7.5) and kept at 4° C. while they were routinely mixed every 2 min on the vortex during 30 min. A sample was taken for measurement of protein content by a BioRad assay (Bio-Rad Laboratories). Equal amounts of protein were heated in sodium dodecyl sulphate (SDS) sample buffer (Laemmli) for 5 min at 95° C., separated on a 3-8% SDS-polyacrylamide gel (FASN, p185^HER2/neu, phospho-p185^HER2/neu) or 4-12% SDS-polyacrylamide gel (AKT, phospho-AKT, ERK1/2, phospho-ERK1/2 and PARP) and transferred onto nitrocellulose membranes. The membranes were incubated for 1 h at room temperature in blocking buffer (2.5% powdered-skim milk in TBS-T [10 mM Tris-HCl pH 8.0, 150 mM NaCl and 0.05% Tween-20]) to prevent non-specific antibody binding. The primary antibody used was a monoclonal antibody. Antibody dilution was prepared in blocking solution and blots were incubated with monoclonal antibody overnight at 4° C. […] Blots were re-probed with an antibody for β-actin to control for protein loading and transfer.
Western blot analysis for poly-ADP-ribose polymerase (PARP) was performed on SK-Br3 cells exposed for 12, 24 and 48 h to compound f (30 μM) and compound i (30 μM). Apoptosis and induction of caspase activity was confirmed by Western blotting analysis showing cleavage of PARP.

HER2 = experiment: Immunoblot analysis of p185HER2/neu and phospho-p185HER2/neu in SK-Br3 cells; assay type: cell-based, human; conditions: for level of total HER2 / expression levels of p-HER2 proteins / levels of p-HER2 proteins: SK-Br3, 30 μM; for level of total HER2: Western blotting or HER2-specific ELISA; for expression levels of p-HER2 proteins: within 2 h after exposure; for levels of p-HER2 proteins: within 6 h after treatment; for active form of oncoprotein HER2: within 2 h after treatment
Procedure: as §1
We have examined the time-dependent effects of compound f (30 μM) and compound i (30 μM) on HER2, AKT and ERK1/2 activation.

[2] = test system: MCF-7 breast cancer cells; experiment: MTT cytotoxicity assay, MCF-7 breast cancer cells; assay type: cell-based, human; conditions: Homo sapiens, MCF7, MCF-7 cells, 48 h, read-out: IC50, growth inhibition, MCF-7
Procedure: (§2) MCF-7 and MDA-MB-231 breast cancer cells were obtained from the American Type Culture Collection (ATCC) and were routinely grown in Dulbecco's modified Eagle's medium (DMEM, Gibco) containing 10% fetal bovine serum (FBS, Bio-Whittaker), 1% L-glutamine, 1% sodium pyruvate, 50 U/mL penicillin and 50 μg/mL streptomycin. SK-Br3 breast cancer cells were obtained from Eucellbank (Universidad de Barcelona, Spain) and were passaged in McCoy's 5 A medium containing 10% FBS, 1% L-glutamine, 1% sodium pyruvate, 50 U/mL penicillin and 50 μg/mL streptomycin. Non-malignant fibroblasts N-1 were obtained from Eucellbank (Universidad de Barcelona, Spain) and were passaged in DMEM medium containing 10% FBS, 1% L-glutamine, 1% sodium pyruvate, 50 U/mL penicillin and 50 μg/mL streptomycin. The cells remained free of Mycoplasma and were propagated in adherent culture according to established protocols. Cells were maintained at 37° C. in a humidified atmosphere of 95% air and 5% CO2.
(§3) Drug sensitivity was determined using a standard colorimetric MTT (3-4,5-dimethylthiazol-2-yl-2,5-diphenyltetrazolium bromide) assay. Briefly, cells were plated out at a density of 7×10^3 cells/100 μL/well in 96-well microtitre plates and allowed an overnight period for attachment. Then the medium was removed and fresh medium along with various concentrations of the tested compound were added to the cultures for a period of 48 h. Following the treatment, the cells were fed with drug-free medium (100 μL/well) and 10 μL of MTT solution (5 mg/mL; Sigma, St. Louis, Mo.), and the incubation was prolonged for 3 h at 37° C. After carefully removing the supernatants, the MTT-formazan crystals formed by metabolically viable cells were dissolved in dimethyl sulphoxide (100 μL/well) and the absorbance was measured at 570 nm in a multi-well plate reader (Model Anthos Labtec 2010 1.7 reader).

[3] = test system: SK-Br3 breast cancer cells; experiment: MTT cytotoxicity assay, SK-Br3 breast cancer cells; assay type: cell-based, human; conditions: for IC50: MTT, 48 h, read-out: IC50, growth inhibition, SK-Br3
Procedure: as §2, §3

T1 sequence (P49327 whole entry): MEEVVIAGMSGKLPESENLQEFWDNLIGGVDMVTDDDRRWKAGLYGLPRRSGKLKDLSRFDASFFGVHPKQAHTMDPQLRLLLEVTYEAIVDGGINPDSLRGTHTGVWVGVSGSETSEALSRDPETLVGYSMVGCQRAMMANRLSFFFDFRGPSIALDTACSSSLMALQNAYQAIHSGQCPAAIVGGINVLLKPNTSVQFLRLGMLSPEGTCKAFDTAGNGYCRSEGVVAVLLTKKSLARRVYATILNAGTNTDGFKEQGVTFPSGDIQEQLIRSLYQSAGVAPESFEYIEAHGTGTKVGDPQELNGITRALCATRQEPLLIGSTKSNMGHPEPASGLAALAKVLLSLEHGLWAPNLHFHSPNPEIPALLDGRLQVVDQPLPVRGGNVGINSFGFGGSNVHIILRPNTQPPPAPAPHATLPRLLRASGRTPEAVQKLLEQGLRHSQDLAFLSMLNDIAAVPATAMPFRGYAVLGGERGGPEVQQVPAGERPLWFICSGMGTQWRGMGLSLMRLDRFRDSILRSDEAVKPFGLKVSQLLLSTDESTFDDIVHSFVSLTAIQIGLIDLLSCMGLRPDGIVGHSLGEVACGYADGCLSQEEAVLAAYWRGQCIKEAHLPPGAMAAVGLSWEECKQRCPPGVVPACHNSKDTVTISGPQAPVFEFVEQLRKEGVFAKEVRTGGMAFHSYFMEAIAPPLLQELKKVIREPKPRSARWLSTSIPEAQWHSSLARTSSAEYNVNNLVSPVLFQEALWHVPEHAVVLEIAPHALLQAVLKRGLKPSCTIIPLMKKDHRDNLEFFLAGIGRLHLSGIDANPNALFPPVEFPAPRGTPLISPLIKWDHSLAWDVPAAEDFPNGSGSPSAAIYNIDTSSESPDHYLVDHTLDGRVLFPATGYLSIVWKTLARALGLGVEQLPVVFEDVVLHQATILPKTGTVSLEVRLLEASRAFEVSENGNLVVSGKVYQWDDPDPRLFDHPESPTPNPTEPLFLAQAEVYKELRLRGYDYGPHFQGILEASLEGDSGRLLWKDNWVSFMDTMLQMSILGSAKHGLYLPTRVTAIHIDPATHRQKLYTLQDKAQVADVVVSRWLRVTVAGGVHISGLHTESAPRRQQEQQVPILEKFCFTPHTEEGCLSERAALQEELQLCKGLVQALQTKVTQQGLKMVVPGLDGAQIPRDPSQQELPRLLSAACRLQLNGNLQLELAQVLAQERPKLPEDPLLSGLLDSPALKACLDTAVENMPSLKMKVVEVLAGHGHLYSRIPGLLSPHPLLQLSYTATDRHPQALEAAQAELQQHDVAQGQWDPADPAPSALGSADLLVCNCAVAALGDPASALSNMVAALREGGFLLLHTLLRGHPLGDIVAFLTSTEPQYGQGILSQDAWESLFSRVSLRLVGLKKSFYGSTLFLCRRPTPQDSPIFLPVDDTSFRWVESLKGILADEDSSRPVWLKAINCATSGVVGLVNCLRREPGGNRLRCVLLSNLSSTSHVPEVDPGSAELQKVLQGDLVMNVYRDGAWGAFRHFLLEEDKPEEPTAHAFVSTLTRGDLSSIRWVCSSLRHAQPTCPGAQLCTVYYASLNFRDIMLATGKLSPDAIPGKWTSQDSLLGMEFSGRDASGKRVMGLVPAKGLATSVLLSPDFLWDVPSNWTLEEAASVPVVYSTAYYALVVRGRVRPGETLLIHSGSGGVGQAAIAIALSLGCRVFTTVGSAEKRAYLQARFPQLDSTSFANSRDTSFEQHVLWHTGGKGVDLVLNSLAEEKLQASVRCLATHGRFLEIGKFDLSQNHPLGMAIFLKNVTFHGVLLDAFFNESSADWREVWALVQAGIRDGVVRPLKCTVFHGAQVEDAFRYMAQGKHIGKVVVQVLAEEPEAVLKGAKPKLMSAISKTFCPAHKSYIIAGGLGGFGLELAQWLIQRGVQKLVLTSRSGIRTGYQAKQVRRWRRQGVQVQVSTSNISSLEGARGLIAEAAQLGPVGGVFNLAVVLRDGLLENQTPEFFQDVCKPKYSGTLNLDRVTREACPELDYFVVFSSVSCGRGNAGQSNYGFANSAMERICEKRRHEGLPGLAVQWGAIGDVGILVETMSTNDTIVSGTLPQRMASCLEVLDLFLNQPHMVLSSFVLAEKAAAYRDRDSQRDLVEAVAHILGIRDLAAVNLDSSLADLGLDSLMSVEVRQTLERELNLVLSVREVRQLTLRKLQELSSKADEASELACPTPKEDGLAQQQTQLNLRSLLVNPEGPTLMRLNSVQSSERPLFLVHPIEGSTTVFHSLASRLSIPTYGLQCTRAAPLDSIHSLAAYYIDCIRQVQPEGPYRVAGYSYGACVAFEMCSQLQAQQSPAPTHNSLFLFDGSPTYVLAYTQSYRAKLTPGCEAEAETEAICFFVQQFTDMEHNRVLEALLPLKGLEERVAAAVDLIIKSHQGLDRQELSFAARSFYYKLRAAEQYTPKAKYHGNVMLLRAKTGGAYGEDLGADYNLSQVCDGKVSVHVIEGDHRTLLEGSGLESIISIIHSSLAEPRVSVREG

| Structure (SMILES) | weight loss in vivo [1] | inhibition of FASN activity (in words) (FASN) | FASN activity, % of control cells (FASN) [%] | reduction of FASN activity (FASN; after 6 h of cell exposure) [%] | reduction of FASN activity (FASN; after 24 h of cell exposure) [%] | induction of apoptosis (cleavage of PARP) (PARP) | 89 KDa product of PARP cleavage (PARP) | level of total HER2 (HER2) | expression levels of p-HER2 proteins (HER2) | levels of p-HER2 proteins (HER2) | active form of oncoprotein HER2 (HER2) | IC50 [2] [µM] | relative IC50 ratio of EGCG to compound [3] | IC50 ([3]; Homo sapiens, SK-BR-3, 48 h) [µM] | IC50 [3] [µM] |
| --- | --- | --- | --- | --- | --- | --- | --- | --- | --- | --- | --- | --- | --- | --- | --- |
| O=C(Oc1cc(OC(=O)c2cc(O)c(O)c(O)c2)c2ccccc2c1)c1cc(O)c(O)c(O)c1 [f, 1,3-bis[(3,4,5-trihydroxybenzoyl)oxy]naphthalene] | without inducing weight loss in vivo | inhibit FASN activity; also recorded: decreased in a time-dependent manner | 10±4 | 50 | 50 | induced apoptosis | marked increase | no significant change | markedly decreased | total decrease | marked decrease | 46.3 ± 18 | 7.5 | 21.3 ± 6.7 | 20 |
| O=C(Oc1ccc(OC(=O)c2cc(O)c(O)c(O)c2)c2ccccc12)c1cc(O)c(O)c(O)c1 [i, 1,4-bis[(3,4,5-trihydroxybenzoyl)oxy]naphthalene] | without inducing weight loss in vivo | inhibit FASN activity; also recorded: decreased in a time-dependent manner | 31±16 | 50 | 50 | induced apoptosis | marked increase | no significant change | markedly decreased | total decrease | marked decrease | 44.4 ± 16.3 | 5.4 | 28.7 ± 0.3 | 28 |
